Data taken from patent US11564923B2, “Compounds and pharmaceutical compositions thereof for the treatment of inflammatory disorders” (Galapagos NV, priority 2017, dated 2023).

Assays:
[1] = test system: IFNα activation of STAT1 in PBMC; assay: IFNα activation of STAT1 in PBMC; type: cell-based; conditions: Homo sapiens; IFNα activation of STAT1 in PBMC; average IC50; read-out: IFNα signaling inhibitory potency IC50
Experimental: After these 2 wash steps the cell pellet is dissolved in ammonium chloride buffer (1.5 M NH4Cl, 100 mM NaHCO3 and 10 mM Na2.EDTA) for lysis of the red blood cells.
PBMC are treated with test compound for 30 min at 37° C. 5% CO2. […] After 30 min of test compound/vehicle pre-treatment, PBMC are stimulated for 30 min at 37° C. 5% CO2 with recombinant human IFNα (PeproTech, catalog number 300-02A) at a final concentration of 5 ng/mL by addition of 20 μL (10× concentrated) cytokine trigger to obtain a final volume of 200 μL per well.
After 30 min of cytokine stimulation, 200 μL of cell suspension is transferred to a 96-well V-bottom plate, centrifugated for 5 min at 1000 rpm to pellet cells, followed by removal of supernatant.
(§1) The percentage inhibition is calculated as: […]
RCLU(vehicle control): Relative Chemiluminescent signal determined in presence of vehicle and trigger
RCLU(test compound): Relative Chemiluminescent signal determined in presence of test compounds and trigger
RCLU(positive control): Relative Chemiluminescent signal determined in presence of positive control and trigger
PIN values are plotted for compounds tested in dose-response and average IC50 values are derived using GraphiPad Prism Software applying non-linear regression (sigmoidal) curve fitting.

[2] = test system: IL-12 activation of STAT4 in NK-92 cells; assay: IL-12 activation of STAT4 in NK-92 cells using AphaLISA SureFire technology; type: cell-based; conditions: Homo sapiens, NK92; IL-12 activation of STAT4 in NK-92 cells, AlphaLISA SureFire; average IC50; read-out: IL12 pSTAT4 IC50
Experimental: IL-2 is added freshly to the medium with each medium refreshment step. Cells are cultured in a humidified incubator at 37° C. 5% CO2.
A subcultured fraction of NK-92 cells is washed once in culture medium without rhIL-2 the day before the experiment and incubated overnight in a culture flask.
5% CO2. […] NK-92 cells are triggered with rhIL-12 for 30 min at 37° C. 5% CO2.
After 30 min of cytokine stimulation the cells are lysed by addition of 15 μL 5× lysis buffer (supplemented with the AlphaLISA kit). After 10 minutes, plates are frozen at −80° C. overnight and the next day the levels of phospho-STAT4 are quantified using the AlphaLISA SureFire ULTRA p-STAT4 (Tyr693) (Perkin Elmer, Catalogue number ALSU-PST4-A10K) according to the manufacturers instructions. AlphaLISA signal (relative light units) is measured using an Envision (Perkin Elmer).
as §1
RLU(trigger/veh): Relative lumescent signal determined in presence of vehicle and trigger
RLU(test compound): Relative luminescent signal determined in presence of test compounds and trigger
PIN values are plotted for compounds tested in dose-response and IC50 values are derived using GraphPad Prism Software applying non-linear regression (sigmoidal) curve fitting. The data are expressed as the average IC50 from different experiments.

[3] = biological target: T1, Recombinant human TYK2 catalytic domain (amino acids 871-1187) (Homo sapiens, UniProt P29597); assay: TYK2 radioactive assay polyGT substrate; type: biochemical; note: 0.1 µM ATP
T1 construct: catalytic domain (amino acids 871-1187)
T1 sequence (P29597 871-1187): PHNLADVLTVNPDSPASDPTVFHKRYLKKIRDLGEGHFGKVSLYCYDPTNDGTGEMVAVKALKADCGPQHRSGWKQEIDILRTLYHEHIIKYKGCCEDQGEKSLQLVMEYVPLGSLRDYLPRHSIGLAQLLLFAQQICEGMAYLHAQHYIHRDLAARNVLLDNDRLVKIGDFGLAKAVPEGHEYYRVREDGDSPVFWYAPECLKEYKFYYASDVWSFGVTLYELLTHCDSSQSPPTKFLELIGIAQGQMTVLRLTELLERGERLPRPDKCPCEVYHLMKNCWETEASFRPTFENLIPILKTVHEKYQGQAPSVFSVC
Experimental: After 120 min at 30° C., reactions were stopped by adding 25 μL/well of 150 mM phosphoric acid. […] Plates were washed 6 times with 300 μL per well of a 75 mM phosphoric acid solution and the bottom of the plates is sealed. […] Kinase activity is calculated by subtracting counts per min (cpm) obtained in the presence of a positive control inhibitor (10 μM staurosporine) from cpm obtained in the presence of vehicle. The ability of a test compound to inhibit this activity (or percentage inhibition) is determined as: […]
cpm test compound=cpm determined for sample with test compound present cpm control=cpm determined for sample with positive control inhibitor cpm vehicle=cpm determined in the presence of vehicle
Dose dilution series were prepared for the compounds enabling the testing of dose-response effects in the TYK2 assay and the calculation of the IC50 for each compound. Each compound is routinely tested at concentration of 20 μM followed by a 1/5 serial dilution, 10 points in a final concentration of 1% DMSO.

Row | IC50 [2] | IC50 [3] | Compound | IC50 [1]
1 | 622 nM | 5.44 nM | Cc1cc(C#N)ncc1Oc1cc(Nc2ccc(C(=O)N3CC[C@@H](N(C)C)C3)cn2)c2ncn(C)c2n1 [Compound 107, 5-[7-[[5-[(3R)-3-(dimethylamino)pyrrolidine-1-carbonyl]pyridin-2-yl]amino]-3-methylimidazo[4,5-b]pyridin-5-yl]oxy-4-methylpyridine-2-carbonitrile] | 110 nM
2 | 248 nM | 5.54 nM | Cc1cc(C#N)ncc1Oc1cc(Nc2ccc(N3CCN(C)CC3)cn2)c2ncn(C)c2n1 [Compound 50, 4-methyl-5-[3-methyl-7-[[5-(4-methylpiperazin-1-yl)pyridin-2-yl]amino]imidazo[4,5-b]pyridin-5-yl]oxypyridine-2-carbonitrile] | 95 nM
3 | 238 nM | 2 nM | Cc1cc(C#N)ncc1Oc1cc(Nc2ccc(C(=O)N3CCO[C@H](C)C3)cn2)c2ncn(C)c2n1 [Compound 145, 4-methyl-5-[3-methyl-7-[[5-[(2R)-2-methylmorpholine-4-carbonyl]pyridin-2-yl]amino]imidazo[4,5-b]pyridin-5-yl]oxypyridine-2-carbonitrile] | 134 nM
4 | 210 nM | 1.47 nM | Cc1cc(C#N)ncc1Oc1cc(Nc2ccc(C(=O)N3CCN(C(C)C)CC3)cn2)c2ncn(C)c2n1 [Compound 46, 4-methyl-5-[3-methyl-7-[[5-(4-propan-2-ylpiperazine-1-carbonyl)pyridin-2-yl]amino]imidazo[4,5-b]pyridin-5-yl]oxypyridine-2-carbonitrile] | 76 nM
5 | 84 nM | 2.02 nM | Cc1cc(C#N)ncc1Oc1cc(Nc2ccc(C(=O)N3CCN(C4CCC4)CC3)cn2)c2ncn(C)c2n1 [Compound 47, 5-[7-[[5-(4-cyclobutylpiperazine-1-carbonyl)pyridin-2-yl]amino]-3-methylimidazo[4,5-b]pyridin-5-yl]oxy-4-methylpyridine-2-carbonitrile] | 52 nM
6 | 981 nM | 6.67 nM | Cc1cc(C#N)ncc1Oc1cc(Nc2ccc(C(=O)N3CC[C@H](N(C)C)C3)cn2)c2ncn(C)c2n1 [Compound 133, 5-[7-[[5-[(3S)-3-(dimethylamino)pyrrolidine-1-carbonyl]pyridin-2-yl]amino]-3-methylimidazo[4,5-b]pyridin-5-yl]oxy-4-methylpyridine-2-carbonitrile] | 121 nM
7 | 133 nM | 0.59 nM | CCc1cc(C#N)ncc1Oc1cc(Nc2ccc(C(=O)N3CCOCC3)cn2)c2ncn(C)c2n1 [Compound 7, 4-Ethyl-5-{3-methyl-7-[5-(morpholine-4-carbonyl)-pyridin-2-ylamino]-3H-imidazo[4,5-b]pyridin-5-yloxy}-pyridine-2-carbonitrile] | 49 nM
8 |  | 1.15 nM | Cc1cc(C#N)ncc1Oc1cc(Nc2ccc(C(=O)N3CCOC[C@H]3C)cn2)c2ncn(C)c2n1 [Compound 146, 4-methyl-5-[3-methyl-7-[[5-[(3R)-3-methylmorpholine-4-carbonyl]pyridin-2-yl]amino]imidazo[4,5-b]pyridin-5-yl]oxypyridine-2-carbonitrile] | 122 nM
9 |  | 12.5 nM | Cc1cc(C#N)ncc1Oc1cc(Nc2ccc(N3C[C@H]4C[C@@H]3CN4C)nn2)c2ncn(C)c2n1 [Compound 152, 4-methyl-5-[3-methyl-7-[[6-[(1R,4R)-5-methyl-2,5-diazabicyclo[2.2.1]heptan-2-yl]pyridazin-3-yl]amino]imidazo[4,5-b]pyridin-5-yl]oxypyridine-2-carbonitrile] | 
10 |  | 4.67 nM | Cc1cc(C#N)ncc1Oc1cc(Nc2ccc(C(=O)N3CCC(N(C)C(=O)OC(C)(C)C)C3)cn2)c2ncn(C)c2n1 (stereo not shown) [Compound 130, (1-{6-[5-(6-Cyano-4-methyl-pyridin-3-yloxy)-3-methyl-3H-imidazo[4,5-b]pyridin-7-ylamino]-pyridine-3-carbonyl}-pyrrolidin-3-yl)-methyl-carbamic acid tert-butyl ester] | 
11 |  | 2.26 nM | COC1CCN(C(=O)c2ccc(Nc3cc(Oc4cnc(C#N)cc4C)nc4c3ncn4C)nc2)CC1 [Compound 125, 5-[7-[[5-(4-methoxypiperidine-1-carbonyl)pyridin-2-yl]amino]-3-methylimidazo[4,5-b]pyridin-5-yl]oxy-4-methylpyridine-2-carbonitrile] | 
12 |  | 2.87 nM | Cc1cc(C#N)ncc1Oc1cc(Nc2ccc(C(=O)N3CCC4(COC4)C3)cn2)c2ncn(C)c2n1 [Compound 131, 4-methyl-5-[3-methyl-7-[[5-(2-oxa-7-azaspiro[3.4]octane-7-carbonyl)pyridin-2-yl]amino]imidazo[4,5-b]pyridin-5-yl]oxypyridine-2-carbonitrile] | 
13 |  | 1.57 nM | Cc1cc(C#N)ncc1Oc1cc(Nc2ccc(C(=O)N3CC4(CCO4)C3)cn2)c2ncn(C)c2n1 [Compound 120, 4-methyl-5-[3-methyl-7-[[5-(3-oxa-6-azaspiro[3.3]heptane-6-carbonyl)-2-pyridyl]amino]imidazo[4,5-b]pyridin-5-yl]oxy-pyridine-2-carbonitrile] | 
14 |  | 3.03 nM | Cc1cc(C#N)ncc1Oc1cc(Nc2ccc(C(=O)N3CC(C(=O)OC(C)(C)C)C3)cn2)c2ncn(C)c2n1 [Compound 122, tert-butyl 1-[6-[[5-[(6-cyano-4-methyl-3-pyridyl)oxy]-3-methyl-imidazo[4,5-b]pyridin-7-yl]amino]pyridine-3-carbonyl]azetidine-3-carboxylate] | 
15 |  | 5.87 nM | Cc1cc(C#N)ncc1Oc1cc(Nc2ccc(C(=O)N3CCN(C(=O)OC(C)(C)C)CC3)cn2)c2ncn(C)c2n1 [Compound 128, 4-{6-[5-(6-Cyano-4-methyl-pyridin-3-yloxy)-3-methyl-3H-imidazo[4,5-b]pyridin-7-ylamino]-pyridine-3-carbonyl}-piperazine-1-carboxylic acid tert-butyl ester] | 
16 |  | 9.38 nM | Cc1cc(C#N)ncc1Oc1cc(Nc2ccc(C(=O)N3CC4(CN(C)C4)C3)cn2)c2ncn(C)c2n1 [Compound 123, 4-methyl-5-[3-methyl-7-[[5-(6-methyl-2,6-diazaspiro[3.3]heptane-2-carbonyl)-2-pyridyl]amino]imidazo[4,5-b]pyridin-5-yl]oxy-pyridine-2-carbonitrile] | 
17 | 190 nM | 2.05 nM | Cc1cc(C#N)ncc1Oc1cc(Nc2ccc(C(=O)N3CC(O)(C4CC4)C3)cn2)c2ncn(C)c2n1 [Compound 113, 5-[7-[[5-(3-cyclopropyl-3-hydroxy-azetidine-1-carbonyl)-2-pyridyl]amino]-3-methyl-imidazo[4,5-b]pyridin-5-yl]oxy-4-methyl-pyridine-2-carbonitrile] | 
18 |  | 2.74 nM | Cc1cc(C#N)ncc1Oc1cc(Nc2ccc(N3CCN(CC(F)(F)F)CC3)nn2)c2ncn(C)c2n1 [Compound 42, 4-Methyl-5-(3-methyl-7-{6-[4-(2,2,2-trifluoro-ethyl)-piperazin-1-yl]-pyridazin-3-ylamino}-3H-imidazo[4,5-b]pyridin-5-yloxy)-pyridine-2-carbonitrile] | 
